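96-well plates; 48 h exposure; 5 concentrations. Endpoints by linear interpolation between flanking doses. Not reached: highest tested concentration assigned. At the TGI there is no net growth.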
Tests used:
Experiment in all cases: NCI anticancer screen, dose series, 48 h
[1] = test system: NCI-H522 lung
[2] = test system: CAKI-1 renal
[3] = test system: SR leukemia
[4] = test system: DU-145 prostate
[5] = test system: A498 renal
[6] = test system: HS 578T breast
[7] = test system: HCT-116 colon
[8] = test system: U251 CNS
[9] = test system: TK-10 renal
[10] = test system: HCT-15 colon
[11] = test system: NCI-H460 lung
[12] = test system: T-47D breast
[13] = test system: MOLT-4 leukemia
[14] = test system: MDA-MB-435
[15] = test system: SF-539 CNS
[16] = test system: UACC-257 melanoma
[17] = test system: LOX IMVI melanoma
[18] = test system: RXF 393 renal
[19] = test system: HCC-2998 colon

Compound	TGI [1]	TGI [2]	TGI [3]	TGI [4]	TGI [5]	TGI [6]	TGI [7]	TGI [8]	TGI [9]	TGI [10]	TGI [11]	TGI [12]	TGI [13]	TGI [14]	TGI [15]	TGI [16]	TGI [17]	TGI [18]	TGI [19]
O=C1NC2O[C@H](CNC(=O)c3cc(Br)c[nH]3)CC2(O)N1 (mixture of isomers)	> 100 µM	> 100 µM	> 100 µM	> 100 µM	> 100 µM	> 100 µM	> 100 µM	> 100 µM	> 100 µM	> 100 µM	> 100 µM	> 100 µM	> 100 µM	> 100 µM	> 100 µM	> 100 µM	–	–	–
C[N+]1(C)CCc2cc(O)c(O)cc2C1Cc1ccc(O)c(O)c1 (configuration not stated)	58.4 µM	> 100 µM	86.1 µM	> 100 µM	> 100 µM	> 100 µM	47.8 µM	> 100 µM	> 100 µM	> 100 µM	> 100 µM	54.7 µM	68.8 µM	39.7 µM	> 100 µM	86.9 µM	81 µM	> 100 µM	–
O=[N+]([O-])c1ccc(S(=O)(=O)n2c3ccc(Br)cc3c3nc4ccccc4nc32)cc1	> 100 µM	> 100 µM	> 100 µM	> 100 µM	> 100 µM	> 100 µM	> 100 µM	> 100 µM	> 100 µM	> 100 µM	> 100 µM	> 100 µM	> 100 µM	> 100 µM	–	> 100 µM	> 100 µM	> 100 µM	> 100 µM
CCOC(=O)C1C(=O)CC1(C)C (configuration not stated)	–	> 10 µM	> 10 µM	> 10 µM	> 10 µM	> 10 µM	> 10 µM	> 10 µM	> 10 µM	> 10 µM	> 10 µM	> 10 µM	> 10 µM	> 10 µM	> 10 µM	> 10 µM	> 10 µM	> 10 µM	> 10 µM
C1=Cc2cc3c(c4nccc(c24)N1)OCO3	26.2 µM	> 32.1 µM	5.78 µM	26.6 µM	> 85.1 µM	32.5 µM	17 µM	> 100 µM	> 80.1 µM	> 76.7 µM	> 30.6 µM	34.8 µM	> 46.8 µM	> 56.1 µM	–	50.7 µM	> 61.1 µM	5.64 µM	28.6 µM
CC(=O)OC1C(Oc2c(C)cc3c(c2O)[C@@H](C)CC[C@@H]3[C@@H](C)CCC=C(C)C)OCC(O)C1O (some centres not stated)	36.4 µM	36 µM	47.3 µM	29.8 µM	36.5 µM	47.4 µM	32.2 µM	32.3 µM	–	34.1 µM	33.2 µM	43.5 µM	49.7 µM	28.1 µM	34.7 µM	35.6 µM	32.5 µM	–	–
COC(=O)c1cc2c(cc1Cl)Sc1nnc(Nc3ccc(C)cc3)n1S2(=O)=O	10.3 µM	22 µM	6.2 µM	7.31 µM	28.9 µM	32.7 µM	24.5 µM	17 µM	27.7 µM	12.5 µM	25.7 µM	4.12 µM	7.07 µM	21.1 µM	2.92 µM	25.6 µM	–	13.2 µM	17.5 µM
CC1(C)OC(=O)N(c2ccccc2)C12C=Cc1cc([N+](=O)[O-])ccc1O2 (configuration not stated)	> 100 µM	> 100 µM	75.3 µM	> 100 µM	> 100 µM	> 100 µM	> 100 µM	> 100 µM	> 100 µM	> 100 µM	> 100 µM	86.9 µM	84.9 µM	62.8 µM	–	77 µM	> 100 µM	> 100 µM	> 100 µM
N#Cc1c(-c2ccccc2)[nH]c2ccc(Cl)cc2c1=O	> 100 µM	> 100 µM	> 100 µM	> 100 µM	–	> 100 µM	> 100 µM	75.9 µM	90.6 µM	> 100 µM	> 100 µM	> 100 µM	> 100 µM	> 100 µM	> 100 µM	> 100 µM	> 100 µM	49 µM	> 100 µM
CCCc1c(O)nc(Nc2nc3ccccc3[nH]2)[nH]c1=O	> 100 µM	> 100 µM	> 100 µM	> 100 µM	> 100 µM	> 100 µM	> 100 µM	> 100 µM	> 100 µM	> 100 µM	> 100 µM	> 100 µM	> 100 µM	> 100 µM	> 100 µM	> 100 µM	–	> 100 µM	–
N#C[C@@H](c1ccccn1)c1ncccc1[N+](=O)[O-]	> 100 µM	> 100 µM	> 100 µM	> 100 µM	> 100 µM	> 100 µM	> 100 µM	> 100 µM	–	> 100 µM	> 100 µM	> 100 µM	> 100 µM	> 100 µM	–	–	> 100 µM	> 100 µM	> 100 µM
O=C(Nc1nnc(-c2ccc(Cl)cc2)o1)C(SC(=S)N1CCOCC1)c1ccccc1 (configuration not stated)	48.9 µM	> 100 µM	> 100 µM	> 100 µM	56.5 µM	> 100 µM	26.5 µM	77.2 µM	> 100 µM	> 100 µM	53.3 µM	> 100 µM	> 100 µM	> 100 µM	34.1 µM	> 100 µM	48.2 µM	> 100 µM	–
O=C1c2ccccc2C(=O)N1CCCCNOCCCN1C(=O)c2ccccc2C1=O	> 100 µM	> 100 µM	> 100 µM	> 100 µM	> 100 µM	> 100 µM	> 100 µM	> 100 µM	> 100 µM	> 100 µM	> 100 µM	> 100 µM	> 100 µM	> 100 µM	–	> 100 µM	> 100 µM	> 100 µM	> 100 µM

Source: PubChem BioAssay (NCI)
